Converted amounts (≈) assume the structure as drawn.
Columns and labels:
[1] = tested on: Streptococcus spp. spontaneous mutants; conditions: S. pneumoniae ATCC 49619; CLSI QC range shown in parentheses; cited from earlier work
[2] = tested on: Bacteroides spp. spontaneous mutants; test: Broth microdilution MIC of spontaneous mutants; assay type: cell-based
Method: (§1) Select isolates were subcultured onto agar containing drug at the selection concentration, were identified by MALDI, and were frozen for broth microdilution MIC testing as described below.
(§2) To determine whether colonies growing on drug selection plates had elevated MIC values to the selecting antibiotic, susceptibility testing by broth microdilution was conducted on isolated mutants following methodology recommended by CLSI (1), (2), and (3) “Performance Standards for Antimicrobial Susceptibility Testing; Twenty-Eighth Informational Supplement.,” CLSI document M100-S28, 2018.
(§3) All wells in columns 2 through 12 of a standard 96-well microdilution plate (Costar 3795) were filled with 150 μL of the appropriate diluent. Then, 300 μL of the test agents were added to the wells of column 1 of the plates at […] the highest final concentration to be tested. Serial two-fold dilutions were made across the rows through column 11 using the Biomek 2000. The wells of column 12 contained no drug and served as the growth control wells. This plate served as the “mother plate” from which selected MIC assay plates or “daughter plates” were made.
Daughter plates for anaerobic organisms were transferred to a Bactron II anaerobic chamber (Sheldon Manufacturing Inc., Cornelius, Oreg.) to reduce for 1 hour prior to inoculation. The inoculum for each organism was prepared in the anaerobic chamber and dispensed into sterile disposable reservoirs. Inoculation was completed using a multichannel pipette to transfer 10 μL of the inoculum into each well of the daughter plate. This yielded a final cell concentration in the daughter plates of approximately 1×10^6 CFU/mL.

[3] = tested on: Streptococcus spp. spontaneous mutants; test: organism not typed; assay type: cell-based
Method: as §1, §2, §3
2 μL of drug solution from each well of a mother plate was added to each corresponding well of the daughter plate in a single step. A standardized inoculum of each aerobic test organism was prepared per CLSI methods to equal a 0.5 McFarland standard, followed by a dilution of 1:20 in MHB II. The plates were then inoculated with 10 μL of the diluted inoculum using the Biomek 2000 from low to high drug concentration, resulting in a final concentration of approximately 5×10^5 CFU/mL. An un-inoculated plate was incubated for the purpose of assessing solubility of the drug in the test media.
The plates for the aerobic tests were stacked 3-4 high, covered with a sterile lid on the top plate, and incubated aerobically at 35° C. for 18-20 hr. The MIC was recorded as the lowest concentration of drug that inhibited visible growth of the organism.

SIBO Bacteria = conditions: cited from earlier work
[4] = in vivo, po, 10 mg/kg; cited from earlier work
[5] = tested on: E. coli ATCC 35218 (TEM-1 β-lactamase producer); test: Broth microdilution MIC (time-kill study); assay type: cell-based, Escherichia coli; conditions: Escherichia coli, ATCC35218
Clostridium spp. = test: Agar dilution MIC, 10 clinical isolates; assay type: cell-based
B. ovatus MMX 3503 = test: Broth microdilution MIC (time-kill study); assay type: cell-based, Bacteroides ovatus; conditions: Bacteroides ovatus, MMX3503; B. ovatus MMX 3504 (so in the source); read-out: MIC
B. vulgatus ATCC 8482 = test: Broth microdilution MIC (time-kill study); assay type: cell-based, Bacteroides vulgatus; conditions: Phocaeicola vulgatus, ATCC8482; B. vulgatus ATCC 8482; read-out: MIC
S. pyogenes ATCC 49399 = test: Broth microdilution MIC (time-kill study); assay type: cell-based, Streptococcus pyogenes; conditions: Streptococcus pyogenes, ATCC49399; S. pyogenes ATCC 49399; read-out: MIC
B. fragilis ATCC 25285 [6] = conditions: B. fragilis MMX 123 ATCC 25285; cited from earlier work
B. fragilis ATCC 25285 [7] = test: Broth microdilution MIC (time-kill study); assay type: cell-based, Bacteroides fragilis; conditions: Bacteroides fragilis, ATCC25285; B. fragilis MMX 123 ATCC 25285; read-out: MIC
S. agalactiae ATCC 13813 = test: Broth microdilution MIC (time-kill study); assay type: cell-based, Streptococcus agalactiae; conditions: Streptococcus agalactiae, ATCC13813
E. coli MMX 1312 = test: Broth microdilution MIC (time-kill study); assay type: cell-based, Escherichia coli; conditions: Escherichia coli, MMX1312; E. coli MMX 1312; read-out: MIC
S. pneumoniae ATCC 49619 = test: Broth microdilution MIC (time-kill study); assay type: cell-based, Streptococcus pneumoniae; conditions: Streptococcus pneumoniae, ATCC49619; S. pneumoniae ATCC 49619; read-out: MIC
E. coli ATCC 25922 = test: Broth microdilution MIC (time-kill study); assay type: cell-based, Escherichia coli; conditions: Escherichia coli, ATCC25922; E. coli ATCC 25922; read-out: MIC
[8] = S. agaloctiae ATCC 13813, selected on rifaximin 4X MIC, Colony A
[9] = S. agaloctiae ATCC 13813, selected on rifaximin 4X MIC, Colony B
[10] = S. agaloctiae ATCC 13813, selected on rifaximin 8X MIC, Colony A
[11] = S. agaloctiae ATCC 13813, selected on rifaximin 8X MIC, Colony B
[12] = S. agaloctiae ATCC 13813 Parent
[13] = S. pneumoniae ATCC 49619, selected on rifaximin 4X MIC, Colony A
[14] = S. pneumoniae ATCC 49619, selected on rifaximin 4X MIC, Colony B
[15] = S. pneumoniae ATCC 49619, selected on rifaximin 8X MIC, Colony A
[16] = S. pneumoniae ATCC 49619, selected on rifaximin 8X MIC, Colony B
[17] = S. pneumoniae ATCC 49619 Parent
[18] = S. pyogenes ATCC 49399, selected on rifaximin 4X MIC, Colony A
[19] = S. pyogenes ATCC 49399, selected on rifaximin 4X MIC, Colony B
[20] = S. pyogenes ATCC 49399, selected on rifaximin 8X MIC, Colony A
[21] = S. pyogenes ATCC 49399, selected on rifaximin 8X MIC, Colony B

## CCC[C@@H]1C[C@@H](C(=O)N[C@@H]([C@H]2O[C@H](SC)[C@H](O)[C@@H](O)[C@H]2O)[C@H](C)Cl)N(C)C1 [CLIN]
[1]
  MIC, CLSI QC range: (0.03-0.12) μg/mL
[2]; B. fragilis ATCC 25285, selected on rifaximin 4X MIC, Colony A
  MIC: 0.5 µg/mL
[2]; B. fragilis ATCC 25285, selected on rifaximin 4X MIC, Colony B
  MIC: 0.5 µg/mL
[2]; B. fragilis ATCC 25285, selected on rifaximin 8X MIC, Colony A
  MIC: 0.5 µg/mL
[2]; B. fragilis ATCC 25285, selected on rifaximin 8X MIC, Colony B
  MIC: 0.5 µg/mL
[2]; B. fragilis ATCC 25285 Parent
  MIC: 0.25 µg/mL
[2]; B. ovatus MMX 3503, selected on rifaximin 4X MIC, Colony A
  MIC: 1 µg/mL
[2]; B. ovatus MMX 3503, selected on rifaximin 4X MIC, Colony B
  MIC: 1 µg/mL
[2]; B. ovatus MMX 3503, selected on rifaximin 8X MIC, Colony A
  MIC: 0.5 µg/mL
[2]; B. ovatus MMX 3503, selected on rifaximin 8X MIC, Colony B
  MIC: 1 µg/mL
[2]; B. ovatus MMX 3503 Parent
  MIC: 0.5 µg/mL
[2]; B. vulgatus ATCC 8482, selected on ceftriaxone 4X MIC, Colony A
  MIC: 0.25 µg/mL
[2]; B. vulgatus ATCC 8482, selected on ceftriaxone 4X MIC, Colony B
  MIC: 0.25 µg/mL
[2]; B. vulgatus ATCC 8482, selected on rifaximin 4X MIC, Colony A
  MIC: 0.25 µg/mL
[2]; B. vulgatus ATCC 8482, selected on rifaximin 4X MIC, Colony B
  MIC: 0.12 µg/mL
[2]; B. vulgatus ATCC 8482, selected on rifaximin 8X MIC, Colony A
  MIC: 0.12 µg/mL
[2]; B. vulgatus ATCC 8482, selected on rifaximin 8X MIC, Colony B
  MIC: 0.25 µg/mL
[2]; B. vulgatus ATCC 8482 Parent (Table 50)
  MIC: 0.25 µg/mL
[2]; B. vulgatus ATCC 8482 Parent (Table 54)
  MIC: 0.25 µg/mL
[3]; [8]
  MIC: 0.03 µg/mL (≈ 0.0706 µM)
[3]; [9]
  MIC: 0.03 µg/mL (≈ 0.0706 µM)
[3]; [10]
  MIC: 0.03 µg/mL (≈ 0.0706 µM)
[3]; [11]
  MIC: 0.03 µg/mL (≈ 0.0706 µM)
[3]; [12]
  MIC: 0.015 µg/mL (≈ 0.0353 µM)
[3]; [13]
  MIC: 0.03 µg/mL (≈ 0.0706 µM)
[3]; [14]
  MIC: 0.03 µg/mL (≈ 0.0706 µM)
[3]; [15]
  MIC: 0.03 µg/mL (≈ 0.0706 µM)
[3]; [16]
  MIC: 0.03 µg/mL (≈ 0.0706 µM)
[3]; [17]
  MIC: 0.06 µg/mL (≈ 0.141 µM)
[3]; [18]
  MIC: 0.03 µg/mL (≈ 0.0706 µM)
[3]; [19]
  MIC: 0.03 µg/mL (≈ 0.0706 µM)
[3]; [20]
  MIC: 0.03 µg/mL (≈ 0.0706 µM)
[3]; [21]
  MIC: 0.03 µg/mL (≈ 0.0706 µM)
[3]; S. pyogenes ATCC 49399 Parent
  MIC: 0.03 µg/mL (≈ 0.0706 µM)

## C[C@@H](O)[C@H]1C(=O)N2C(C(=O)O)=C(S[C@@H]3CN[C@H](C(=O)Nc4cccc(C(=O)O)c4)C3)[C@H](C)[C@H]12 [ertapenem]
SIBO Bacteria
  activity against SIBO organisms: active against SIBO organisms
[4]
  Rat oral exposure (Dose): 0.39 μM*h at 10

## Cc1ncc([N+](=O)[O-])n1CCO [metronidazole, Metronidazole]
[5]
  MIC: > 32 µg/mL
Clostridium spp.
  relative activity among drugs tested: meropenem and metronidazole had similar activity
B. ovatus MMX 3503
  MIC: 0.5 µg/mL (≈ 2.92 µM)
B. vulgatus ATCC 8482
  MIC: 0.5 µg/mL (≈ 2.92 µM)
S. pyogenes ATCC 49399
  MIC: > 32 µg/mL
B. fragilis ATCC 25285 [6]
  CLSI QC range (MIC): (0.25-2) μg/mL
B. fragilis ATCC 25285 [7]
  MIC: 0.5 µg/mL (≈ 2.92 µM)
S. agalactiae ATCC 13813
  MIC: > 32 µg/mL
E. coli MMX 1312
  MIC: > 32 µg/mL
S. pneumoniae ATCC 49619
  MIC: > 32 µg/mL
E. coli ATCC 25922
  MIC: > 32 µg/mL

## CC[C@H]1OC(=O)[C@H](C)[C@@H](O[C@H]2C[C@@](C)(OC)[C@@H](O)[C@H](C)O2)[C@H](C)[C@@H](O[C@@H]2O[C@H](C)C[C@H](N(C)C)[C@H]2O)[C@](C)(O)C[C@@H](C)CN(C)[C@H](C)[C@@H](O)[C@]1(C)O [AZI]
[1]
  MIC, CLSI QC range: (0.06-0.25) μg/mL
[3]; [8]
  MIC: 0.015 µg/mL (≈ 0.02 µM)
[3]; [9]
  MIC: 0.015 µg/mL (≈ 0.02 µM)
[3]; [10]
  MIC: 0.015 µg/mL (≈ 0.02 µM)
[3]; [11]
  MIC: 0.015 µg/mL (≈ 0.02 µM)
[3]; [12]
  MIC: 0.015 µg/mL (≈ 0.02 µM)
[3]; [13]
  MIC: 0.03 µg/mL (≈ 0.0401 µM)
[3]; [14]
  MIC: 0.03 µg/mL (≈ 0.0401 µM)
[3]; [15]
  MIC: 0.03 µg/mL (≈ 0.0401 µM)
[3]; [16]
  MIC: 0.03 µg/mL (≈ 0.0401 µM)
[3]; [17]
  MIC: 0.06 µg/mL (≈ 0.0801 µM)
[3]; [18]
  MIC: 0.06 µg/mL (≈ 0.0801 µM)
[3]; [19]
  MIC: 0.06 µg/mL (≈ 0.0801 µM)
[3]; [20]
  MIC: 0.06 µg/mL (≈ 0.0801 µM)
[3]; [21]
  MIC: 0.06 µg/mL (≈ 0.0801 µM)
[3]; S. pyogenes ATCC 49399 Parent
  MIC: 0.03 µg/mL (≈ 0.0401 µM)

Source: patent US20210386367A1, “DEVICES AND SYSTEMS FOR GASTROINTESTINAL MICROBIOME DETECTION AND MANIPULATION” (Progenity, Inc., priority 2018, published 2021)
